How the values were obtained:
plaque bacteria = test: in vitro anti-plaque test involving saliva reinoculation; format: cell-based; settings: 20 minutes on plaque grown on enamel discs
S.mutans = settings: pH = 7; acid production by S.mutans

Molecule | Relative Anti-Plaque Activity (% bacteria killed vs. control growth) (plaque bacteria; Sn^II conc. 2406 ppm) [%] | Relative Anti-Plaque Activity (% bacteria killed vs. control growth) (plaque bacteria; Sn^II conc. 3594 ppm) [%] | Relative Anti-Plaque Activity (% bacteria killed vs. control growth) (plaque bacteria; Sn^II conc. 6000 ppm) [%] | Concentration of Sn²⁺ in mmole to reach 100 % acid inhibition (S.mutans) [mmol] | Relative Anti-Plaque Activity (% bacteria killed vs. control growth) (plaque bacteria; Sn^II conc. 1188 ppm) [%]
stannous glucose-6-phosphate [Sn G-6-P] | 22 | 75 | 88 | 0.25 | 
O=P([O-])([O-])OP(=O)([O-])[O-].[Sn+2].[Sn+2] [Sn₂P₂O₇, stannous pyrophosphate, reference compound] |  |  | 76 | 1.02 | 
O=P([O-])([O-])O[C@H]1O[C@H](CO)[C@@H](O)[C@H](O)[C@H]1O.[Sn+2] [Sn G-1-P, stannous glucose-1-phosphate] |  | 96 | 98 | 0.2 | 32

— patent EP0658565A1, “Oral products” (UNILEVER PLC, priority 1993, dated 1995)
